Results as given in US11712425B2, “Immunoregulatory role of 3-OH-kynurenamine and uses thereof” (ALBERT EINSTEIN COLLEGE OF MEDICINE, priority 2018, dated 2023).
Entries after “also recorded” stand apart in the source; their conditions may differ. Values belong to the molecule of their own block, whether it stands above or below them.

What was measured:
cDCs = experiment: Gene expression by RT-PCR in conditioned cDCs; type: cell-based, mouse; details: cDCs from spleens of C57BL/6 mice, 30 μM, after 2-6 hr
Method: FIG. 3A-3D. 3-OH-kynurenamine confers immunosuppressive properties on DCs. […] Analysis (B) was calculated from 3 independent experiments. C and D) mouse cDCs (C) and human PBMCs (D). After incubation with 30 (C) or 2 (D) μM kynurenines, gene expression was evaluated by RT-PCR at 6− (C) or 6 and 18 (D) h. Data were normalized to GAPDH expression and presented relative to results in untreated cells (dotted line, one-fold). Mean fold induction+SD of triplicate experiments.
(§1) Biological Role of 3-OH-Kynurenamine. Trp metabolites are known to exert several functions in immune cells. In dendritic cells, either cDCs or pDCs, incubation with L-kynurenine and/or 3-OH-anthranilic acid induces IDO1 expression and production of immunosuppressive TGF-β production. In turn, cDCs and pDCs conditioned with these Trp catabolites increase differentiation of T lymphocytes into Treg cells in vitro and, when administered in vivo, induce antigen-specific T cell tolerance.

AhR = target: T1, AhR (Mus musculus, UniProt P30561); experiment: AhR luciferase reporter (Cyp1a1 promoter) in mouse embryonic fibroblasts; type: cell-based; details: for AhR activation (luciferase reporter): MEFs constitutively expressing AhR, stimulated 24 hours, different concentrations
T1 construct: mouse embryonic fibroblasts (MEFs) constitutively expressing AhR; endogenous in cells; host or cells: mouse embryonic fibroblasts (MEFs)
T1 sequence (P30561 10-848): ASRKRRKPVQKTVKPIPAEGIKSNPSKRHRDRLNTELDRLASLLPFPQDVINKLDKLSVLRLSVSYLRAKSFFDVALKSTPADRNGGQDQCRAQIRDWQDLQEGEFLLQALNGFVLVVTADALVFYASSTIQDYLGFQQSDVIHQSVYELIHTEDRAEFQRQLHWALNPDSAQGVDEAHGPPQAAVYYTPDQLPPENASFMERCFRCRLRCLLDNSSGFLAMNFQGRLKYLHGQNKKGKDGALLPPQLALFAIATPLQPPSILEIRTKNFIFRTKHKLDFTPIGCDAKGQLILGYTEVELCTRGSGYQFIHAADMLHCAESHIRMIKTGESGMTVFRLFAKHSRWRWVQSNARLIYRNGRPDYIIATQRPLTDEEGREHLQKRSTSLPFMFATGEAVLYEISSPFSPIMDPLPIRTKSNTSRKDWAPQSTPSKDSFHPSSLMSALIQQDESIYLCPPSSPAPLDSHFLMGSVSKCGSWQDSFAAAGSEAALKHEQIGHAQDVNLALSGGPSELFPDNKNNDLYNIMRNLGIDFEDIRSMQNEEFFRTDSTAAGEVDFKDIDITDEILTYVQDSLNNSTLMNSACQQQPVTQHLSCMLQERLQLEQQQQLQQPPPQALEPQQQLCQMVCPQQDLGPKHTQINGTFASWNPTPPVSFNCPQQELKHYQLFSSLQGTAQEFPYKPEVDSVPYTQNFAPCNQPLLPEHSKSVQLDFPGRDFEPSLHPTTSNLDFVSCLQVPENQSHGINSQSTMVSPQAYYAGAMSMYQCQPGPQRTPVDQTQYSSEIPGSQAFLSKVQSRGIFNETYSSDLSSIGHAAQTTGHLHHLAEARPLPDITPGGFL
Method: Cells were either untreated or stimulated for 24 hours with different concentrations of 3-OH-kynurenamine and, as positive control, L-kynurenine, the known AhR agonist.

[1] = tested on: antigen-specific delayed-type hypersensitivity; experiment: In vivo suppressive activity of conditioned DCs (delayed-type hypersensitivity, footpad skin test); parameters: species or system mice; details: cDCs conditioned 24 hr with 30 μM, pulsed with IGRP peptide; skin reactivity at 15 days
Method: FIG. 4A-4B. […] B) In vivo suppressive activity of CD8^− DCs, pulsed with the IGRP peptide (an autoantigen in autoimmune diabetes), in combination with a minority fraction (5%) of CD8^− DCs either untreated (Unt) or pretreated with 30 μM 3-OH-kynurenamine for 24 h and pulsed with the same peptide prior in vivo administration; analysis of skin reactivity of recipient mice to the eliciting peptide at 15 days is presented as change in footpad weight. ***P<0.001 (mean weight of experimental versus control footpads, i.e., injected with vehicle alone). Results are presented as fold induction±SD of triplicate experiments.
as §1

dendritic cells = experiment: Quantitative proteomics of dendritic cells treated with 3-OH-kynurenamine; type: cell-based
NFκB pathway = experiment: Western blot of NFκB pathway in DCs; type: cell-based; details: 3 independent experiments
Psoriasis model = experiment: Imiquimod-induced psoriasis model; type: in vivo, mice; details: Imiquimod 7 days, 50 mg/kg ip for 7 days
Method: FIG. 5A-5B. […] Some of the mice were also treated with 3-OH-Kynurenamine (50 mg/kg ip; for 7 days). Controls are mice that were shaved but left untreated; Imiquimod and Imiquimod plus 3-OH-Kynurenamine refers to the specific treatments. After 7 days mice were sacrificed and skin processed for H&E staining.
as §1

[2] = tested on: nephrotoxic nephritis (NTN); experiment: Nephrotoxic nephritis (NTN) model; type: in vivo, 129/Sv mice; details: daily intraperitoneal 50 mg/kg from day +4 until day +12
Method: FIG. 6A-6F. […] Ten week old female 129/Sv mice were immunized intraperitoneally with rabbit IgG in complete Freund's adjuvant (day 0). Five days later, mice received an intravenous injection of 90 ul of pre-formed rabbit anti-mouse glomerular basement membrane antibodies (N-Ab) or PBS. Starting at day +4, mice started receiving daily intraperitoneal injections of 50 mg/kg of 3-OH-kynurenamine (n=6) or vehicle control (n=8) until sacrifice on day +12. A) Proteinuria levels determined at sacrifice by uristix. B) % of mice in each group at sacrifice that reached the predetermined cut-off value for severe proteinuria of >300 mg/dl. C) Blood Urea Nitrogen levels determined at sacrifice. D) % of mice in each group that reach pre-specified humane end points for sacrifice (>300 mg/dl on two consecutive days, a single value of >2000 mg/dl, or poor general well being. E and F) All groups of mice developed similar titers of E) antirabbit injected Ab and F) anti-GBM Ab. […] (*p<0.05, **p<0.01).
Biological Role of 3-OH-Kynurenamine. Trp metabolites are known to exert several functions in immune cells. In dendritic cells, either cDCs or pDCs, incubation with L-kynurenine and/or 3-OH-anthranilic acid induces IDO1 expression and production of immunosuppressive TGF-β production. […]

[3] = target: T2, aromatic L-amino acid decarboxylase (AADC) (Homo sapiens, UniProt P20711); experiment: Decarboxylation by recombinant AADC; type: biochemical; details: enzyme plus PLP, monitored over 40 min, CO2 production
T2 construct: full-length recombinant AADC was incubaled with 3-OH-kynurenine
T2 sequence (P20711 1-480): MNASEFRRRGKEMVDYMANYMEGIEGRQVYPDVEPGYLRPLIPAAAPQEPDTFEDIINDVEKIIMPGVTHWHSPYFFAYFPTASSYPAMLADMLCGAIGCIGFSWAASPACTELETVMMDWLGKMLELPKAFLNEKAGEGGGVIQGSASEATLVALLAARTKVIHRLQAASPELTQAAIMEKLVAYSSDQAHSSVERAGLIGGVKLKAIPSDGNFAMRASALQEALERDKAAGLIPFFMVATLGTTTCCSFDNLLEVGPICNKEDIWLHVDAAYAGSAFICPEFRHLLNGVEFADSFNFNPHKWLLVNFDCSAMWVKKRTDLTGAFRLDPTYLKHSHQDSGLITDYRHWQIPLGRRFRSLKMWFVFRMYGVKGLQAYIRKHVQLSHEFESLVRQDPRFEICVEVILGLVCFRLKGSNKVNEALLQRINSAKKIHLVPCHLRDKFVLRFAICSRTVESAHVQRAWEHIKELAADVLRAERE
Method: FIG. 2. […] Tryptophan, a natural substrate for aromatic L-amino acid decarboxylase (AADC) was incubated with the enzyme and the PLP catalyst. In a separate reaction 3-OH-kynurenine was incubated under the same experimental conditions. Reactions were monitored over a 40 min. period. […] One of a triplicate experiment is shown.
As a next step, to determine whether AADC is the natural enzyme processing 3-OH-L-kynurenine into 3-OH-kynurenamine, full-length recombinant AADC was incubaled with 3-OH-kynurenine and its conversion to 3-OH-kynurenamine was followed by detecting CO2 production due to decarboxylation.

SMILES: NCCC(=O)c1cccc(O)c1N [3-OH-kynurenamine]
Tgfbl transcripts (cDCs): significantly upregulates
idol transcripts (cDCs): significantly upregulates
AhR activation (luciferase reporter) (AhR): induced a concentration-dependent AhR activation
AhR activation relative to L-kynurenine (AhR; MEFs, 24 hours): around 6.5 times
antigen-specific delayed-type hypersensitivity induced by immunostimulatory cDCs [1]: suppressed antigen-specific delayed-type hypersensitivity
NF-κB inhibitor IKB level (quantitative proteomic) (dendritic cells; cDC, 20 μM, 24 hr, IFNγ/3-OH-kynurenamine vs IFNγ control): up-regulation of the NF-κB inhibitor IKB
MS1 quantification of immunological relevant proteins (dendritic cells; dendritic cells, media supplemented with 3-OH-Kynurenamine vs media alone): down-regulated
NFκB pathway (Western blot, densitometry) (NFκB pathway): downregulation of the NFκB pathway
skin inflammation / clinical and histological manifestation of psoriasis (Psoriasis model; 50 mg/kg): decreases clinical and histological manifestation of psoriasis; also recorded: decrease skin inflammation
epidermis hyperplasia (Psoriasis model; H&E staining): statistically significant lower levels
ortho and parakeratosis (Psoriasis model; H&E staining): statistically significant lower levels
rete ridges formation (Psoriasis model; H&E staining): statistically significant lower levels
nephrotoxic nephritis / kidney damage (proteinuria, overall animal survival) [2]: attenuates nephrotoxic nephritis (NTN)
nephrotoxic nephritis / kidney damage (proteinuria, overall animal survival) ([2]; listed as 3-OH-Kynurenamine): decrease

SMILES: Nc1c(O)cccc1C(=O)C[C@H](N)C(=O)O [3-OH-kynurenine]
conversion (decarboxylation) by AADC [3]: converted to 3-OH-kynurenamine; also recorded: AADC was capable of inducing 3-OH-kynurenine decarboxylation

SMILES: Nc1ccccc1C(=O)C[C@H](N)C(=O)O [L-kynurenine, reference compound]
AhR activation (luciferase reporter) (AhR): activated AhR in a concentration-dependent manner

conversion (decarboxylation) by AADC [3]: converted to Tryptamine
SMILES: N[C@@H](Cc1c[nH]c2ccccc12)C(=O)O [Trp, Tryptophan]
